The values below come from patent publication US20250230226A1, “PLXDC1/PLXDC2 ACTIVATORS AND THEIR USE IN THE TREATMENT OF BLOOD VESSEL DISORDERS” (THE REGENTS OF THE UNIVERSITY OF CALIFORNIA, priority 2019, published 2025).

Assay [1] deals with T1, PLXDC1 (Homo sapiens, UniProt Q8IUK5).
T1 construct: expressed in transfected cells
T1 sequence (Q8IUK5 19-500): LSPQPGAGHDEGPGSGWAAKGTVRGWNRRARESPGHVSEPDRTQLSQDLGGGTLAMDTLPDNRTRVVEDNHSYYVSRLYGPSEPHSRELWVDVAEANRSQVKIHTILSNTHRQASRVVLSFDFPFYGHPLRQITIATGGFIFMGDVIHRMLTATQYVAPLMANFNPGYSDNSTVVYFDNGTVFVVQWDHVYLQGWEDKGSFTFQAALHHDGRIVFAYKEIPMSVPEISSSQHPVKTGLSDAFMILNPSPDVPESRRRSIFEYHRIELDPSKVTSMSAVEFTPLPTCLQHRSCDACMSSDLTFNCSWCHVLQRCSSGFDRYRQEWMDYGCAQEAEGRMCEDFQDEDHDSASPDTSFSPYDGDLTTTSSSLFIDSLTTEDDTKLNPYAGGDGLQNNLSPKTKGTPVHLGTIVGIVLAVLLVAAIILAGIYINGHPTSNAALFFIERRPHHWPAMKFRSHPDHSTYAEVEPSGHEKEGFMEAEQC
Kind of assay: Gfi1b promotor luciferase receptor activation assay, PLXDC1-expressing cells (FIG. 18A, 19). It counts as cell-based. Conditions: compound treatments 1 day; basal activity defined as 1. The source says: FIG. 18A-B show activation of PLXDC1 and PLXDC2 by small molecules. […] All compound treatments were done for 1 day. Basal promotor activity of the PLXDC1-expressing cells is defined as 1.
Basal promotor activity of the PLXDC1-expressing cells is defined as 1. The basal activity of PLXDC1-expressing cells (Control) are higher than cells without PLXDC1, consistent promotor activation by the ectopic expression of the receptor without ligands.
By linking its promotor to a luciferase reporter gene, this example developed a PLXDC1 receptor activation assay.

Assay [2] deals with pathogenic blood vessels. As to the kind of experiment: Ischemia-induced retinopathy in vivo (FIG. 22). Set-up: species or system mice. The note with it: subcutaneous injection during return to room air; n=10 retinas. The text has this:
A. Upper graph: Schematic diagram of the experimental design for ischemia-induced retinopathy. The high oxygen environment caused blood vessel loss (vaso-obliteration). In room air, loss of vessels triggered abnormal angiogenesis that generated pathogenic blood vessels on the top of the retina (marked in yellow in D). Treatment was applied during the return to room air by subcutaneous injection. Lower graph: quantitation of healthy blood vessels, vaso-obliteration and pathogenic blood vessels between the control (n=10) and treated retinas (n=10). […] B. Representative images of flat-mounted control retinas (upper two images) and retinas from compound treated mice (lower two images). Red signal is blood vessel marker. C. The same retinas in B with vaso-obliteration areas marked in white color. These images illustrate that compound-treated retinas went through vaso-obliteration like the control retinas. D. The same retinas in B with pathogenic blood vessels marked in yellow color.
FIG. 22A includes a schematic diagram of the experimental design for ischemia-induced retinopathy. The high oxygen environment caused blood vessel loss (vaso-obliteration). In room air, loss of vessels triggered abnormal angiogenesis that generated pathogenic blood vessels on the top of the retina (marked in yellow in FIG. 22D). Treatment was applied during the return to room air by subcutaneous injection. […]

Assay [3] has as its system LL/2 lung cancer tumor endothelial cells. As to the kind of experiment: Lung LL2 ex vivo model of tumor angiogenesis. It counts as cell-based, mouse. The note with it: 20 μm. In a few lines:
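Live/dead imaging with FDA and PI, taken e.g. 48 h post-drug under fixed channel settings, measures treatment effects on endothelial cells sprouting from Lewis lung tumor explants. Explants were seeded in Matrigel drops and grown ~4 days in endothelial growth medium, 37 °C, 5% CO2, before dosing.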

Structures are written as SMILES.

In the case of `CCCCCCCCCCCCCCOc1ccc(S(=O)(=O)c2cnc3ccc([S+](C)[O-])cc3c2N2CCC(N3CCC(N4CCN(C)CC4)CC3)CC2)cc1` (centres unmarked) [Compound 346], in assay [1], the “Gfi1b promotor activity in PLXDC1-expressing cells” value was “highly activated the promotor activity”. Also, in assay [2], the Healthy blood vessels entry was “improving the amount of healthy blood vessels” and the Pathogenic blood vessels result is on record as “highly suppressed pathogenic blood vessels”. The “48 hrs (morphology observations)” value in assay [3] (48 hours, LL/2 tumor endothelial cells) was “* (50% or less of cells vesicularize in cell shape)”. For the same compound, the Cell death in assay [3] (drug treatment for two days, ratio of red area to total endothelial cell area) was 20%.
